The record followed here is patent US9994536B2, “Compounds and methods of treating neurological disorders” (TORREY PINES INSTITUTE FOR MOLECULAR STUDIES, priority 2014, dated 2018).

Series [1] relates to sAPPα in supernatants of 7WD10 cells. Description: Western blot sAPPα release assay, 7WD10 cells. It is filed as cell-based. The conditions noted are these: 10 nM, 7WD10 supernatant. The method, then: (2). To ascertain that hits identified as a result of AlphaLISA assay are not due to artifacts of the detection system, the sAPPα levels were measured by Western blots as a secondary assay downstream of primary HTS to confirm hits or discard artifacts of the AlphaLISA assay. The assay was performed using a range of concentrations of hit compounds (10-5,000 nM). A hit compound named thiazole piperazine #244 (THPI-244) and THPI-326 induced dose-dependent increase of sAPPα in supernatants of 7WD10 cells (FIG. 1.3). […] Since compound THPI-244 increased sAPPα levels more than THPI-326, we focused on THPI-244 for further validation.
Western blot sAPPα release assay. 7WD10 cells were grown in 6-well plates and treated with test compounds and SAHA (vorinostat) at several concentrations in duplicate wells. After 24 h of drug exposure, the conditioned media (CM) was collected, centrifuged to remove cell debris and subjected to SDS-PAGE electrophoresis. sAPPα (6E10, mouse IgG from IBL America ltd) was detected using indicated antibody. […] Samples were subjected to SDS-PAGE, transferred and immunoblotted with indicated antibodies and detected by enhanced chemiluminescence method. Quantification of Western blot signals was done using ImageJ software.
For orientation: In western blotting, separated proteins are transferred to a membrane and probed.

A further series concerns human primary neurons. The experiment in a line: MTT cytotoxicity assay, human primary neurons. The series is classed as cell-based. Conditions: 24 h exposure. An excerpt: (4). Toxicity is another crucial limitation for successful drug development as evidenced by recent failure of γ-secretase inhibitors at the clinical trials due to cytotoxicity (Cole, S L and Vassar, R, 2007, Mol. Neurodeg. 2, 22-47; Doody R S, et al. 2013. N. Eng. J. Med. 369, 341-350). Therefore we measured cytotoxicity by very sensitive MTT assay as described previously (Hayes, C D., et al. 2013, BMC Medicine. 26, 11.81; 23; Hayes, C D., et al., 2012, PLoS One 7, e45841) in human primary neurons obtained from a commercial source (cat #1520, ScienCell, Carlsbad, Calif., USA) and fibroblasts derived directly from AD patients (cat #AG06263C, Coriell Institute Cell repository supported by NINDS, NIH). […] We directly used human neurons for toxicity studies so as to reduce the chances of future failure at a later stage due to toxicity.
(In general: Tetrazolium dyes change colour on reduction, which living cells bring about.)

Consider `O=C(Cc1ccccc1)N[C@H](CNc1nc(CN2CCN(C(=O)Cc3ccccc3)CC2)cs1)c1ccccc1` [THPI-244], for which the “increase of sAPPα over untreated control cells (Western blot)” value in series [1] stood at 2 fold. Besides, the “lowest concentration with significant cytotoxicity” value in the series on human primary neurons is 40 µM.
